One compound from publication PMC7044277 (Nature Communications, 2020) can be followed below.

“And” between values parts separate entries of the source, which are not always exact repeats. Equal entries are not always repeated.

What all share (type): cell-based
Assay [1] concerns the target T1, 320 non-olfactory GPCRs (Homo sapiens, UniProt P35410).
T1 construct: expressed in transfected cells; host or cells: HTLA cells
Particulars: receptor MAS1L; replicate values, Fig_4g.

Assay [2] deals with T2, 320 non-olfactory GPCRs (Homo sapiens, UniProt Q8IZF4).
T2 construct: expressed in transfected cells; host or cells: HTLA cells
T2 sequence (Q8IZF4 22-528): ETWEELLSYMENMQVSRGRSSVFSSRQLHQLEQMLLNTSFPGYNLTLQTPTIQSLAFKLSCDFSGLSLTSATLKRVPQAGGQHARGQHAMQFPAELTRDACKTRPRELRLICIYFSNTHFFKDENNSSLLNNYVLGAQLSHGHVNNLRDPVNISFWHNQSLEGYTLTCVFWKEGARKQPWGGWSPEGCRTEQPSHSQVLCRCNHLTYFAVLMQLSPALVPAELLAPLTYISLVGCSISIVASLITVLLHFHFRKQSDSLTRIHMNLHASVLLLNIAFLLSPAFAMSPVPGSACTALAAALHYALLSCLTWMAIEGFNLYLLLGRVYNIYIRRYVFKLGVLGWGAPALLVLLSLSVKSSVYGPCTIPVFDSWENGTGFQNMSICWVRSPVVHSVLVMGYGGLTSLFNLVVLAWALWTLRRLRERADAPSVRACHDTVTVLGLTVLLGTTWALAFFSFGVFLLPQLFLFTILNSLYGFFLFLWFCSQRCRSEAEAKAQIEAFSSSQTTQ

Assay [3] has as its target T3, 320 non-olfactory GPCRs (Homo sapiens, UniProt Q99527).
T3 construct: expressed in transfected cells; host or cells: HTLA cells

Assay [4] addresses T4, 320 non-olfactory GPCRs (Homo sapiens, UniProt Q9GZQ6).
T4 construct: expressed in transfected cells; host or cells: HTLA cells
Particulars: receptor NPFF1; replicate values, Fig_4g.
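Throughout, for Fold of Basal: compound tested at 1 µM final concentration.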
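Throughout, for GPCRome agonism screen response: fold over basal response of each receptor without drug.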

T3 sequence (Q99527 whole entry): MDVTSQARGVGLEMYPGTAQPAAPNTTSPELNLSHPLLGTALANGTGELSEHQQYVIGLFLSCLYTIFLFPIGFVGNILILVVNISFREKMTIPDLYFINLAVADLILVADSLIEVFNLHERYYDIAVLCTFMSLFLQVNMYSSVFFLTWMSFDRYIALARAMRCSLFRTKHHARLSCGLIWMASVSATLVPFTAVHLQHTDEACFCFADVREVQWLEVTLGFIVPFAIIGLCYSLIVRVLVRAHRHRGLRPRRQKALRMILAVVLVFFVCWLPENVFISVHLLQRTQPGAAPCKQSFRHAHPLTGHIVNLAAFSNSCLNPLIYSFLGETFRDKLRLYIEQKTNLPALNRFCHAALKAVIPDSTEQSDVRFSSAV
T1 sequence (P35410 whole entry): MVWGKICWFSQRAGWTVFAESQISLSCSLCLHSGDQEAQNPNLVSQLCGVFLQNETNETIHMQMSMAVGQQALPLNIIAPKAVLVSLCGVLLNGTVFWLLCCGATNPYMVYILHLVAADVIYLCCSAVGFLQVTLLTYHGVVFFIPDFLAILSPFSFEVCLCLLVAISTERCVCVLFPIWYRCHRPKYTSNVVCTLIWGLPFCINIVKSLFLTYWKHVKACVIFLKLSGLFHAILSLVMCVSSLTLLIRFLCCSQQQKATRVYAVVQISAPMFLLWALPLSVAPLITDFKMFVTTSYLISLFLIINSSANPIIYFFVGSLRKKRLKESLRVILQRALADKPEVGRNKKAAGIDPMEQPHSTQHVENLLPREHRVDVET
T4 sequence (Q9GZQ6 whole entry): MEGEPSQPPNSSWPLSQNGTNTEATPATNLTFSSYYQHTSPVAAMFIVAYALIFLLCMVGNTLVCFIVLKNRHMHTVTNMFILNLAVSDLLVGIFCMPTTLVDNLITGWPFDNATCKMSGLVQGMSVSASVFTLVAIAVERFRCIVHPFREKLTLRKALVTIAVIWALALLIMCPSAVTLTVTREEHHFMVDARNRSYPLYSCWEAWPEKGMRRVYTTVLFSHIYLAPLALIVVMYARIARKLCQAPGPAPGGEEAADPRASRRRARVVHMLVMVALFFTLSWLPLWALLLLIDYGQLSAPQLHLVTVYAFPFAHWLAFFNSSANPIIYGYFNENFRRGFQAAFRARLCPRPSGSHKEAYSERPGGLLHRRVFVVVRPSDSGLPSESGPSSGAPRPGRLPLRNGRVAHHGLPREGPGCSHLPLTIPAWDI

Turning to `CCOc1cccc2cc(C(C)NCC3(O)CCCCC3)oc12` (stereo not shown) [O4LE6], the “GPCRome agonism screen response” value at 320 non-olfactory GPCRs [1] was 0.5688 and 0.6917 and 1.207 and 0.7272; at 320 non-olfactory GPCRs [4], 1.802 and 0.79 and 0.7669 and 0.6228. Moreover, the “Fold of Basal” value on 320 non-olfactory GPCRs [2] is 1.8988 and 1.9 and 1.379; on 320 non-olfactory GPCRs [3] it was 0.9251 and 0.8387 and 0.6915 and 0.7823.
